PubChem BioAssay (NCI)
Several values for one entry are separate records, joined by “and”; a condition that tells them apart may be missing. Identical values can stand only once.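 Method: 48-hour compound exposure of cells in 96-well plates, five concentrations, linear interpolation of endpoints. At the GI50, growth is halved. Definition used: TGI = concentration required for complete inhibition of growth.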

Assays:
Test in all cases: growth of human tumour cells (NCI), 48 h
[1] = test system: ACHN renal
[2] = test system: HOP-62 NSCLC
[3] = test system: MOLT-4 leukemia
[4] = test system: OVCAR-5 ovarian
[5] = test system: SF-539 CNS
[6] = test system: UACC-257 melanoma
[7] = test system: UACC-62 melanoma
[8] = test system: HCC-2998 colon
[9] = test system: M14 melanoma
[10] = test system: MCF7 breast

| SMILES | TGI [1] [µM] | TGI [2] [µM] | TGI [3] [µM] | TGI [4] | TGI [5] | TGI [6] | TGI [7] | GI50 [1] [µM] | GI50 [8] [µM] | TGI [8] | GI50 [2] [µM] | GI50 [9] [µM] | TGI [9] [µM] | GI50 [10] [µM] | TGI [10] [µM] | GI50 [3] | GI50 [4] [µM] | GI50 [5] [µM] | GI50 [6] | GI50 [7] [µM] |
| --- | --- | --- | --- | --- | --- | --- | --- | --- | --- | --- | --- | --- | --- | --- | --- | --- | --- | --- | --- | --- |
| CN(C)CC/C(=N\Nc1ccc(Cl)c(Cl)c1)c1ccccc1 | 3.05 | 6.09 | 5.9 | 6.34 µM | 3.47 µM | 9.61 µM | 3.88 µM |  |  |  |  |  |  |  |  |  |  |  |  |  |
| Cc1ccc2c(Nc3cccc(Cl)c3F)ncc(NC(=O)c3csc4c(N)ncnc34)c2c1 | > 100 | > 100 | > 100 | > 100 µM | > 100 µM | > 100 µM |  | > 100 | 0.281 | > 100 µM | 0.359 | 0.0351 | 0.608 | > 100 | > 100 | > 100 µM | 0.137 | > 100 | 0.0715 µM |  |
| COc1cc2ccnc(-c3c4ccccc4c(N)c4c(OC)c(OC)ccc34)c2cc1OC | 14 | 14.9 | 9.53 |  | 4.6 µM | 4.37 µM | 10.1 µM |  |  | 8.86 µM |  |  |  |  |  |  |  |  |  |  |
| Cc1ccc(S(=O)(=O)SCc2ccccc2CSS(=O)(=O)c2ccc(C)cc2)cc1 | > 100 | > 100 | 43.9 |  | 36.2 µM | > 100 µM | 31 µM |  |  | > 100 µM |  |  | 47.3 |  |  |  |  |  |  |  |
| O=Cc1ccc(Oc2c3ccccc3nc3occc23)cc1 |  | 37.9 | 24.4 | 89.7 µM | 37.5 µM | 30.1 µM | 30.4 µM |  |  |  | 14.8 | 15.9 | 30.3 | 13.8 | 32.2 | 6.89 µM | 18.6 | 18.2 | 12.2 µM | 13.1 |
| Cc1ccccc1NC(=O)C1C(=O)N(c2ccccc2C)C(=O)/C1=N\N (centres undefined) | > 100 | > 100 | > 100 | > 100 µM | > 100 µM | > 100 µM | > 100 µM |  |  | > 100 µM |  |  | > 100 |  |  |  |  |  |  |  |
| CCC[CH2][Sn]([CH2]CCC)([O]C(=O)c1cc(OC)c(OC)cc1OC)[O]C(=O)c1cc(OC)c(OC)cc1OC | 3 | 4.41 | 6.43 | 4.33 µM | 2.23 µM | 3.31 µM | 2.37 µM | 1.62 |  |  | 2.35 | 1.51 | 2.99 |  |  | 0.747 µM | 2.27 | 1.02 | 1.29 µM | 1.12 |
| COc1cc(/C=C/c2ccc(OC(C)=O)cc2)cc(OC)c1OC | 78.6 | > 100 | 75.7 | 68.6 µM | 60.8 µM | > 100 µM | 70.6 µM |  |  |  |  |  | > 100 |  |  |  |  |  |  |  |
| COc1c(NC(=O)CC(C)=O)[c]([Hg][O]C(C)=O)c(OC)c(Cl)[c]1[Hg][O]C(C)=O | 25.6 | 36.6 | 64.4 | 40.4 µM | 9.7 µM | 26.5 µM | 22.9 µM | 13 | 18.8 | 34.3 µM | 20.2 | 13 | 25.7 |  |  | 19 µM | 25.7 | 2.72 | 13.7 µM | 11 |
| CC(=O)C1C(=O)C(=O)N(c2ccccc2N2C(=O)C(=O)C(C(C)=O)C2=O)C1=O (centres undefined) | > 100 | > 100 | > 100 | > 100 µM | > 100 µM | > 100 µM | > 100 µM |  |  | > 100 µM |  |  | > 100 |  |  |  |  |  |  |  |
| N#CCN1CCOCCOCCN(CC#N)CCOCCOCC1 | > 100 | > 100 | > 100 | > 100 µM | > 100 µM | > 100 µM | > 100 µM |  |  | > 100 µM |  |  | > 100 |  |  |  |  |  |  |  |
| O=C(CC(=O)Nc1ccccc1O)Nc1ccccc1O | 22.4 | > 100 | > 100 | > 100 µM | 35.1 µM | 30 µM | 10.9 µM |  |  | > 100 µM |  |  | 29.7 |  |  |  |  |  |  |  |
| CC1=C(C(=O)CC(=O)C(=O)Nc2ccccc2)Sc2ccccc2N1 | > 100 | > 100 | > 100 | > 100 µM | > 100 µM | > 100 µM | > 100 µM |  |  |  |  |  | > 100 |  |  |  |  |  |  |  |
| Cc1ncc(C(=O)Nc2ccc(CN3CCN(C)CC3)c(C(F)(F)F)c2)cc1C#Cc1cnc(N)c2ncccc12 | 1.65 | 11.9 |  | 2.81 µM | 2.59 µM | 2.55 µM | 1.31 µM | 0.063 |  |  | 0.704 |  |  | 1.61 | 4.36 | 0.0946 µM | 0.807 | 1.12 | 0.128 µM | 0.0276 |
| CCN(C(=O)CCl)C(C)(C)C(SSSC(c1ccc(Cl)cc1)C(C)(C)N(CC)C(=O)CCl)c1ccc(Cl)cc1 (centres undefined) | 16.9 | 23.4 | 13.9 | 27.9 µM | 10.9 µM | 3.48 µM |  | 4.78 | 11.1 | 26.6 µM | 8.33 | 1.91 | 3.65 | 5.09 | 21.9 | 4.46 µM | 13.8 | 3.14 | 1.82 µM |  |
| ClC1=NC(Cl)C(Cl)=N/C1=N\c1ncn[nH]1 (centres undefined) | 3.48 | 5.11 |  | 3.27 µM | 5.6 µM | 4.25 µM |  | 1.88 | 2.17 | 4.28 µM | 2.3 | 2.64 | 7.15 | 1.78 | 4.15 |  | 1.71 | 2.22 | 1.7 µM |  |
| Nc1ncnc2c(C3OC(CO)C(O)C3O)[nH]nc12 (centres undefined) |  |  | 38.3 | 3.58 µM and 8.57 µM | 2.32 µM and 5.87 µM | 10.2 µM and 26.6 µM | 10.7 µM and 10.2 µM | 0.0944 | 0.0575 | 3.11 µM and 1.31 µM | 0.123 | 0.248 | 13.5 |  |  | 3.59 µM and 2.01 µM | 0.0727 | 0.271 | 1.45 µM and 2.1 µM |  |
| Cc1ccc(C2(O)CC(c3ccc([N+](=O)[O-])o3)=NN2C(=O)COc2ccccc2Cl)cc1 (centres undefined) | 63.2 | 83.5 | 96.1 | > 91.8 µM | 48.4 µM | 53.6 µM | 24.5 µM |  |  | 38.3 µM |  |  | 15.4 |  |  |  |  |  |  |  |
| Nc1nc(N)c(N=O)c(Nc2ccc(I)cc2)n1 | > 100 | 51.1 | 65.9 | 61 µM | 70.4 µM | 70.1 µM | 37.9 µM |  |  | 88.2 µM |  |  | 56.6 |  |  |  |  |  |  |  |
